Test results: patent US10150737B2, “Compounds for controlling arthropods” (priority 2013, dated 2018)

Legend:
[1] = logP determination by HPLC on a reversed-phase column (C18); assay type: physicochemical; conditions: for logP^a): HPLC-MS method a); for log P: HPLC-MS
Ctenocephalides felis [2] = test: Ctenocephalides felis - in vitro contact tests with adult cat fleas; assay type: in vivo; conditions: application rate 5 μg/cm2 (=500 g/ha); after 48 h; fleas dead or moribund
Summary of the method: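 Tubes coated with compound in acetone (250 μl of 900 ppm solution gives 5 μg/cm^2 on 44.7 cm^2), solvent evaporated, then 5–10 adult fleas added and kept horizontal at room temperature and ambient humidity. After 48 h, dead or moribund (motionless/uncoordinated) fleas scored as % efficacy.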

Amblyomma hebraeum = test: Amblyomma hebaraeum test (tick nymphs, immersion); assay type: in vivo; conditions: application rate 100 ppm; tick nymphs immersed one minute; after 42 days
Method: Solvent: dimethyl sulphoxide
To produce an appropriate active ingredient formulation, 10 mg of active ingredient are mixed with 0.5 ml of dimethyl sulphoxide, and the concentrate is diluted with water to the desired concentration.
Tick nymphs (Amblyomma hebraeum) are placed into perforated plastic beakers and immersed in the desired concentration for one minute. The ticks are transferred on filter paper into a Petri dish and stored in a climate-controlled cabinet.
After 42 days, the kill in % is determined. 100% means that all of the ticks have been killed; 0% means that none of the ticks have been killed.

Boophilus microplus = Boophilus microplus - injection test; assay type: in vivo; conditions: application rate 20 μg/animal; injection into engorged adult female ticks; after 7 days
Summary of the method: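 Active ingredient in DMSO, 1 μl injected into the abdomen of 5 engorged adult female ticks, then held in a climate-controlled room. Efficacy scored after 7 days from laying of fertile eggs, with non-fertile-looking eggs kept about 42 days for larval hatch; 100% means no fertile eggs.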

[3] = system: Boophilus microplus Parkhurst strain, SP-resistant; test: Boophilus microplus - dip test; assay type: in vivo; conditions: application rate 100 ppm; dip of engorged adult female ticks; after 7 days
Summary of the method: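 SP-resistant Parkhurst strain engorged adult female Boophilus microplus (8-10 per tube) dipped in DMSO-based compound dilutions in water, then kept in a climate-controlled room. Efficacy scored after 7 days from fertile egg laying, with larval hatch checked after about 42 days; 100% means no fertile eggs.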

Ctenocephalides felis [4] = test: Ctenocephalides felis - oral test; assay type: in vivo; conditions: application rate 100 ppm in citrated cattle blood; after 2 days
Summary of the method: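 Compound in DMSO diluted into citrated cattle blood, fed through a parafilm membrane to about 20 unfed adult cat fleas. Kill in % scored after 2 days (100% = all dead).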

Lucilia cuprina = Lucilia cuprina test; assay type: in vivo; conditions: application rate 100 ppm; L1 larvae; after 2 days
Summary of the method: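 About 20 L1 larvae placed on minced horsemeat treated with compound, formulated in DMSO and diluted with water to test concentration. Kill in % scored after 2 days (100% = all larvae dead, 0% = none).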

Musca domestica = Musca domestica test; assay type: in vivo; conditions: application rate 100 ppm; adult houseflies; after 2 days
Summary of the method: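 Compound dissolved in DMSO (10 mg per 0.5 ml) and diluted with water to the test concentration. Sponges soaked with sugar solution plus formulation were offered to 10 adult houseflies per vessel. Mortality (% kill, 100% = all dead, 0% = none) scored after 2 days.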

Phaedon cochleariae = Phaedon cochleariae - spray test; assay type: in vivo; conditions: larvae on Chinese cabbage leaf discs, after 7 days
Summary of the method: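 Chinese cabbage leaf discs sprayed with compound formulated in acetone/DMF and water containing 1000 ppm emulsifier; once dry, infested with mustard beetle larvae. Efficacy (% larvae killed) scored after 7 days.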

Spodoptera frugiperda = Spodoptera frugiperda - spray test; assay type: in vivo; conditions: caterpillars on maize leaf discs, after 7 days
Summary of the method: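 Maize leaf discs sprayed with compound formulated in acetone/DMF and diluted in water containing 1000 ppm alkylaryl polyglycol ether emulsifier, then infested with armyworm caterpillars after drying. Efficacy scored after 7 days as % caterpillars killed (100% all, 0% none).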

Tetranychus urticae = Tetranychus urticae - spray test, OP-resistant; assay type: in vivo; conditions: bean leaf discs, after 6 days
Summary of the method: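 Compound dissolved in acetone/DMF, diluted with water containing 1000 ppm alkylaryl polyglycol ether emulsifier to test concentrations. Bean leaf discs infested with all stages of spider mites were sprayed; % kill determined after 6 days (100% = all mites dead, 0% = none).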

Myzus persicae = Myzus persicae - spray test; assay type: in vivo; conditions: Chinese cabbage leaf discs, after 6 days
Summary of the method: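 Chinese cabbage leaf discs carrying all stages of Myzus persicae sprayed with compound in acetone/DMF diluted in water with 1000 ppm emulsifier. Efficacy (% aphids killed) assessed after 6 days.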

[5] = reversed-phase column (C18), Table I-T3

With `N#CC1(NC(=O)c2cc(-c3cnn(-c4c(Cl)cc(C(F)(C(F)(F)F)C(F)(F)F)cc4C(F)(F)F)c3)ccc2Cl)CC1` [I-T3-57] the “logP^a)” value [1] was 4.3, the “logP^a)” value [1, 5] was 4.3 and the efficacy (Ctenocephalides felis [2]) was 100%. For the same molecule, the “efficacy (kill)” value (Amblyomma hebraeum) was 100%, the “efficacy (laying of fertile eggs)” value (Boophilus microplus) was 100% and the “efficacy (laying of fertile eggs)” value [3] was 100%. For the same molecule, the “efficacy (kill)” value (Ctenocephalides felis [4]) was 100%, the “efficacy (kill)” value (Lucilia cuprina) was 100% and the “efficacy (kill)” value (Musca domestica) was 100%. It also gave an efficacy (Phaedon cochleariae; application rate 100 g/ha) of 100%, an efficacy (Spodoptera frugiperda; application rate 100 g/ha) of 100% and an efficacy (Tetranychus urticae; application rate 100 g/ha) of 100%.

In the case of `Cc1cc(C(F)(C(F)(F)F)C(F)(F)F)cc(Br)c1-n1cc(-c2ccc(Cl)c(C(=O)NC3CC3)c2)cn1` [I-T3-86], the “logP^a)” value [1] is reported as 4.5, the “logP^a)” value [1, 5] is reported as 4.5 and the efficacy (Ctenocephalides felis [2]) is reported as 100%. For the same molecule, the “efficacy (kill)” value (Amblyomma hebraeum) was 100%, the “efficacy (laying of fertile eggs)” value (Boophilus microplus) was 100% and the “efficacy (laying of fertile eggs)” value [3] was 100%. For the same molecule, the “efficacy (kill)” value (Ctenocephalides felis [4]) was 100%, the “efficacy (kill)” value (Lucilia cuprina) was 100% and the “efficacy (kill)” value (Musca domestica) was 100%. The efficacy (Phaedon cochleariae; application rate 100 g/ha) was 100%, the efficacy (Spodoptera frugiperda; application rate 100 g/ha) was 100% and the efficacy (Tetranychus urticae; application rate 100 g/ha) was 100%.

With `N#CC1(NC(=O)c2cc(-c3cnn(-c4c(Cl)cc(C(F)(F)F)cc4Cl)c3)cnc2Cl)CC1` [I-T3-95] the “logP^a)” value [1] was 3.1, the “log P” value [1, 5] was 3.1 and the efficacy (Ctenocephalides felis [2]) was 100%. The “efficacy (kill)” value (Amblyomma hebraeum) was 100%, the “efficacy (laying of fertile eggs)” value (Boophilus microplus) was 100% and the “efficacy (laying of fertile eggs)” value [3] was 100%. The “efficacy (kill)” value (Ctenocephalides felis [4]) was 100%, the efficacy (Myzus persicae; application rate 100 g/ha) was 90% and the efficacy (Phaedon cochleariae; application rate 100 g/ha) was 100%. It also gave an efficacy (Spodoptera frugiperda; application rate 100 g/ha) of 100% and an efficacy (Tetranychus urticae; application rate 100 g/ha) of 100%.

For `CN(C(=O)c1cc(-c2cnn(-c3c(Cl)cc(C(F)(C(F)(F)F)C(F)(F)F)cc3Cl)c2)cnc1Cl)C1CC1` [I-T3-100], the “logP^a)” value [1] was 4.4, the “log P” value [1, 5] was 4.4 and the efficacy (Ctenocephalides felis [2]) was 100%. The “efficacy (kill)” value (Amblyomma hebraeum) was 100%, the “efficacy (laying of fertile eggs)” value (Boophilus microplus) was 100% and the “efficacy (laying of fertile eggs)” value [3] was 100%. The “efficacy (kill)” value (Ctenocephalides felis [4]) was 100%, the “efficacy (kill)” value (Lucilia cuprina) was 100% and the “efficacy (kill)” value (Musca domestica) was 100%. It also gave an efficacy (Myzus persicae; application rate 500 g/ha) of 100%, an efficacy (Phaedon cochleariae; application rate 500 g/ha) of 100% and an efficacy (Spodoptera frugiperda; application rate 500 g/ha) of 100%. For the same molecule, the efficacy (Tetranychus urticae; application rate 500 g/ha) was 100%.

With `Cc1cc(C(F)(C(F)(F)F)C(F)(F)F)cc(C)c1-n1cc(-c2cnc(Cl)c(C(=O)N(C)C3CC3)c2)cn1` [I-T3-101] the “logP^a)” value ([1]; reversed-phase column (C18)) was 4.4, the “log P” value [1, 5] was 4.4 and the efficacy (Ctenocephalides felis [2]) was 100%. For the same molecule, the “efficacy (kill)” value (Amblyomma hebraeum) was 95%, the “efficacy (laying of fertile eggs)” value (Boophilus microplus) was 100% and the “efficacy (laying of fertile eggs)” value [3] was 100%. For the same molecule, the “efficacy (kill)” value (Ctenocephalides felis [4]) was 100%, the “efficacy (kill)” value (Lucilia cuprina) was 100% and the “efficacy (kill)” value (Musca domestica) was 100%. For the same molecule, the efficacy (Myzus persicae; application rate 100 g/ha) was 100%, the efficacy (Phaedon cochleariae; application rate 500 g/ha) was 100% and the efficacy (Spodoptera frugiperda; application rate 500 g/ha) was 83%. For the same molecule, the efficacy (Tetranychus urticae; application rate 500 g/ha) was 100%.

For `CN(C(=O)c1cc(-c2cnn(-c3c(Cl)cc(C(F)(C(F)(F)F)C(F)(F)F)cc3Cl)c2)cnc1Cl)C1(C#N)CC1` [I-T3-102], the “logP^a)” value ([1]; reversed-phase column (C18)) was 4.3, the “log P” value [1, 5] was 4.3 and the efficacy (Ctenocephalides felis [2]) was 100%. The “efficacy (kill)” value (Amblyomma hebraeum) was 90%, the “efficacy (laying of fertile eggs)” value (Boophilus microplus) was 100% and the “efficacy (laying of fertile eggs)” value [3] was 100%. The “efficacy (kill)” value (Ctenocephalides felis [4]) was 100%, the “efficacy (kill)” value (Lucilia cuprina) was 100% and the “efficacy (kill)” value (Musca domestica) was 100%. It also gave an efficacy (Phaedon cochleariae; application rate 500 g/ha) of 100%, an efficacy (Spodoptera frugiperda; application rate 500 g/ha) of 100% and an efficacy (Tetranychus urticae; application rate 500 g/ha) of 90%.
